Source: patent US20220031848A1, “BIOINK FOR 3D DEPOSITION” (Regents of the University of Minnesota, priority 2018, published 2022)
One block for each compound: values may come before it.

Key:
printed heart = assay: Fluid pressure in ventricular-like chamber of the printed heart (FIG. 11A); format: cell-based; conditions: versus spontaneous mechanical activity of the same chamber
From the text: FIG. 11A is a graph of pressure dynamics of an example printed heart using bioink described herein. […] The relatively flat line is the system baseline without contraction. Other clinically-important, physiologically complex mechanical parameters can also be measured. FIG. 11B is an optical map of an example printed heart using bioink described herein.

hChaMP [1] = assay: Optical mapping of voltage in hChaMP (di-4-ANEPPS); format: cell-based, human; conditions: 1 μM (FIG. 35B)
Method: The hChaMP was immersed in a 10 μM solution of the voltage-sensitive dye di-4-ANEPPS in Krebs-Ringer Buffer for 20 min. After this incubation, half of the dye solution was removed and replaced with RPMI+B27 with insulin media. After 2-5 min stabilization, hChaMPs were excited with a two diode-pumped, continuous-excitation green laser (532 nm, 1 W), and fluorescence intensity was recorded for 15 seconds using 14-bit, 80×80-pixel resolution cameras at 500 frames per second. In some hChaMPs, pacing was provided at 1 and 2 Hz via a bipolar electrode and optical mapping movies were recorded during pacing. For drug testing, hChaMPs were treated with 1 μM of isoproterenol and optical mapping movies were recorded with and without pacing.
Optical action potential duration (APD) was measured at 80% repolarization, and two-dimensional (2D) APD maps were constructed to reveal the spatial distribution of APD on the hChaMP surface. Local conduction velocity (CV) was calculated as described previously. Specifically, the distributions of activation times (AT), measured at (dV/dt)max, for the spatial regions of 3×3 pixels were fitted with the plane, and gradients of activation times gx and gy were calculated for each plane along the x- and y-axes, respectively. The magnitude of the local CV was calculated for each pixel as (gx^2+gy^2)^−1/2. Mean values for CV were calculated for the visible surface. […]

hChaMP [2] = assay: Pressure-volume catheter measurement in hChaMP; format: cell-based, human; conditions: 1 μM versus spontaneous contraction, 5 contraction cycles (FIGS. 44A, 44B)
Method: Pulse pressure and stroke volume of hChaMPs were measured using an ADV500 PV system with a PV catheter. The hChaMP was transferred to a 10 cm dish with 20 mL RPMI plus B-27 Supplement with insulin on a heating plate pre-heated to 37° C. to ensure the working temperature was always above 30° C. The PV catheter was inserted and positioned close to the apex of hChaMP to obtain clear pressure and volume signals, and the vessel through which the catheter was inserted was tied off to stabilize the construct. Isoproterenol was given by adding 20 μL of 1 mM solution into the dish to achieve the final concentration of 1 μM. […] The volume reading was further calibrated by conducting a dye dilution test. Briefly, acellular hChaMPs were first monitored by the ADV500 PV system while being compressed and released by 1.45 mm, 2.9 mm, and 4.35 mm from the side. […] Next, the hChaMP was compressed and released by 1.45 mm depth from the side for 3 times, and the hChaMP was then removed and the bulk medium was collected and examined by a Cytation 3 microplate reader at 524 nm for absorbance from which the displaced volume could be determined. […]
The acquired data was post-processed and analyzed by a custom-written script in MATLAB. […] To examine the stroke work generated by the hChaMPs, 5 random contraction cycles were used for creating PV loops and the stroke work was determined by the area in the loops.

hChaMPs [3] = assay: Calcium transients in hChaMPs (Fluo-4 AM), drug response; format: cell-based, human
Method: Calcium movement in hChaMPs was recorded after recovery from lactate treatment using a DMi8 fluorescence microscope (Leica, Wetzlar, Germany). hChaMPs were first cultured with 5 μM Fluo-4 acetoxymethyl ester for 30 min at 37° C. and then washed with Tyrode's salt solution for another 30 min at 37° C. After that, the plates with hChaMPs were moved onto the microscope stage and covered with a heating plate to maintain the temperature at 37° C. Fluo-4 AM intensity was recorded at a frame rate of 6.90 Hz with 30 ms exposure time. The acquired data was processed by Fiji and a custom-written script in MATLAB (MathWorks). To generate the calcium traces, background signals of nonactive regions were subtracted from fluorescence signals of beating sites and then normalized against the baseline intensity. The effects of ionotropic drugs on calcium activity of hChaMPs were also analyzed by incubating Fluo-4 AM-treated hChaMPs with 1 μM Isoproterenol or 0.5 μM Verapamil for 10 min at 37° C. prior to being imaged. Calcium transients are presented as normalized intensity (f/f0) over time, along with the average peak amplitude and the average interspike interval.

hChaMPs [4] = assay: Contractility video analysis of hChaMPs; format: cell-based; conditions: Homo sapiens; at least 3 different areas across 2 hChaMPs (FIG. 38); read-out: EC50, beat rate by contractility
From the text: Beating videos of hChaMPs were obtained at 4× on an Axiovert CFL 40 microscope at 8.7 frames per second. Beating rates (contraction, relaxation, and beats per minute) were obtained using an open source automated video analysis algorithm^4 with a macroblock size of 100×100 pixels and a maximum movement detection of 50 pixels to accommodate the robust movement of the tissue. For generation of a heat map of contractility over an entire hChaMP, a macroscale video was used with the macroblock size set to 25×25 pixels in the video analysis algorithm with a maximum movement detection of 20 pixels due to the lower magnification.

[5] = tested on: differentiated hiPSCs in the printed heart; assay: Calcium traces of the printed heart, first experiment (FIG. 9); format: cell-based, human; conditions: complex printed heart (FIG. 9)

SMILES: Cc1ccc2c(c1)C(=O)C1(O)CCN(c3ccccc3)C1=N2 (stereo not drawn) [blebbistatin]
chamber pressure amplitude (printed heart): inhibited pressure amplitudes

EC50 (hChaMPs [3]; Homo sapiens, 5 different areas across two hChaMPs (FIG. 31), read-out: EC50, beat rate by calcium transient activity): 9 nM
EC50 (hChaMPs [4]): 9 nM
SMILES: CC(C)NCC(O)c1ccc(O)c(O)c1 (stereo not drawn) [isoproterenol]
response of electrical activity to drug stimulation (hChaMP [1]): responded in a dramatic and predicted fashion
stroke work (hChaMP [2]): reduced
calcium handling frequency (hChaMPs [3]; 1 μM, 10 min at 37° C.): increased in frequency

SMILES: Cn1c(=O)c2c(ncn2C)n(C)c1=O [caffeine]
beating rate with respect to control [5]: accelerate

SMILES: COc1ccc(CCN(C)CCCC(C#N)(c2ccc(OC)c(OC)c2)C(C)C)cc1OC (stereo not drawn) [verapamil]
calcium handling amplitude (hChaMPs [3]; 0.5 μM, 10 min at 37° C.): decreased in amplitude
beating rate with respect to control [5]: slow
